Results: patent publication US20110183889A1, “SALICYLANILIDE MODIFIED PEPTIDES FOR USE AS ORAL THERAPEUTICS” (The Regents of the University of California, priority 2007, published 2011)
Values belong to the molecule of their own block, whether it stands above or below them.

How the values were obtained:
[1] = tested on: LDL-induced monocyte chemotactic activity in cultures of human aortic endothelial cells; test: HDL-inflammatory index: HDL from treated apoE null mice tested in human aortic endothelial cell cultures; assay type: in vivo; conditions: for HDL-inflammatory index, salicylanilide with D-4F or L-4F: FIG. 24, salicylanilide:peptide 10:1, peptide 5 μg by stomach tube
Protocol: 11-month-old female apoE null mice were fasted during the day. At night the mice were provided chow containing or not containing additions. […] The mice were only given one gram of chow per mouse (n=8 mice per group) so that they would consume all of the chow. In the morning after the chow was consumed the mice were bled and their plasma was sucrose cryopreserved and fractionated by FPLC and the HDL-containing fractions were tested for their ability to inhibit monocyte chemotactic activity induced by a standard control human LDL (A) in cultures of human aortic endothelial cells. The mouse HDL (C-J) was also compared to a standard human HDL (B) that was added at the same concentrations as the mouse HDL. The resulting monocyte chemotactic activity was normalized to the standard control LDL added alone (A). The results are plotted as the HDL-inflammatory index, which is the result of dividing the monocyte chemotactic activity measured for each condition by the monocyte chemotactic activity obtained by the standard control LDL added alone, which was normalized to 1.0 as described previously (Navab et al. (2004) J Lipid Res, 45: 993-1007).
A second experiment was performed as described for the first experiment with 8 mice in each group except that the additions to the chow were different. […] As in the first experiment the mice were only given one gram of chow per mouse so that they would consume all of the chow. In the morning this second group of mice were bled and their HDL tested in the human artery wall cell culture together with the HDL from the first experiment.
L-4F (free base) was diluted with water to give 10 μg per 100 μL of water. […] The mice were fasted and after 7 hours they were bled and their plasma was sucrose cryopreserved. The plasma was fractionated by FPLC and the HDL-containing fractions were tested for their ability to inhibit the induction of monocyte chemotactic activity by a standard control human LDL, which was added to cultures of human aortic endothelial cells. The standard control human LDL was also added by itself or with a standard control human HDL. The values obtained by the standard control human LDL alone were normalized to 1.0. The values obtained after the addition of the standard control HDL or the mouse HDL were compared to the values obtained by the standard control LDL alone to give the HDL Inflammatory Index.
Fasting was continued and the mice were bled 5 hours later and the HDL inflammatory index determined in cultures of human aortic endothelial cells as described in FIG. 8. Briefly, To determine the HDL-inflammatory index lipoproteins were added to human aortic endothelial cell cultures as described previously (Navab et al., (2005) Circulation Research 97: 524-532). A normal control human LDL was added to each well in triplicate at a final concentration of 100 μg/mL of LDL-cholesterol. A normal human HDL was added to three wells containing human LDL at a final concentration of 50 μg/mL HDL-cholesterol as a positive control. HDL from the mice at a final concentration of 50 μg/mL HDL-cholesterol was added in triplicate to other wells containing human LDL. After 8 hours of culture the supernatants were removed and monocyte chemotactic activity was determined as previously described (Navab et al. (2001) J. Lipid Res., 42: 1308-1317; Danciger et al. (2004) J. Immunol. Meth., 288: 123-124). The values obtained from wells containing the human LDL but no HDL were normalized to 1.0. The values obtained from wells containing the human LDL with either human or mouse HDL were divided by the values obtained from wells with human LDL without added HDL to give the HDL-inflammatory index as previously described (Ansell et al. (2003) Circulation 108: 2751-2756).

[2] = tested on: monocyte chemotactic activity in cultures of human aortic endothelial cells; test: LDL-inflammatory index: LDL from treated apoE null mice tested in human aortic endothelial cell cultures; assay type: in vivo; conditions: for LDL-inflammatory index, salicylanilide with D-4F or L-4F: FIG. 25, mice of FIG. 24
From the text: […] to induce monocyte chemotactic activity in cultures of human aortic endothelial cells and compared to a standard control human LDL whose values were normalized to 1.0 for the LDL-inflammatory index.

[3] = tested on: atherosclerosis in apoE Null mice; test: atherosclerosis lesions (aortic sinus, en face, macrophage area), 14 weeks in chow; assay type: in vivo; conditions: FIGS. 29-31, L-4F 25 and niclosamide 250 μg/mouse/day in chow, all groups pravastatin 50 μg/mouse/day
aortic sinus lesion area = test: lesion regression in old apoE null mice, six months in chow; assay type: in vivo; conditions: FIGS. 32-34; L-4F 200 μg and niclosamide 2 mg/mouse/day in chow, pravastatin 50 μg/mouse/day, 26 weeks
From the text: Ninety-five female apoE null mice age 9.5 months from the UCLA breeding colony were identified. Twenty-three were sacrificed at time Zero (Group I) to establish lesion area at the start of the experiment. […] All groups received 50 micrograms/mouse/day of pravastatin in their drinking water. At the veterinarian's request because of fighting and/or ulcerative dermatitis mice were euthanized prior to the end of the experiment as follows: 6 mice from Group II; 5 mice from Group III; 4 mice from Group IV. After six months the remaining mice were sacrificed and aortic sinus lesion area was determined as described previously (Id.).
In still another experiments, nine and half months-old female apoE null mice were divided into four groups: Group I was sacrificed to establish base line lesion area (Time Zero). […] Group III received L-4F at 200 μg/mouse/day in rodent chow. […] Groups II-IV received pravastatin 50 μg/mouse/day in drinking water. After 26 weeks the mice were sacrificed and aortic sinus lesion area was determined.

[4] = self-association of L-4F in aqueous environment (non-denaturing gel); assay type: physicochemical; conditions: FIG. 39 lane 2
From the text: Lane 1 contains molecular weight markers (HMW).

[5] = tested on: LDL-induced monocyte chemotactic activity in cultures of human aortic endothelial cells; conditions: administered orally to mice; Navab et al. 2002; cited from earlier work
[6] = mouse, in vivo, po
[7] = mouse, in vivo; cited from earlier work
[8] = solubilization of niclosamide in water by L-4F; assay type: physicochemical; conditions: FIG. 13; Niclosamide 10 mg per mL in water or water with 1.0 mg/mL L-4F, homogenized, 4° C. ten days
Protocol: The solutions were stored at 4° C. for ten days and photographed (see FIG. 13).

[9] = cited from earlier work
HDL function = conditions: drinking water of apoE null mice for 24 hours; D-4F 1 μg/ml, statin 0.05 mg/ml; related application U.S. Ser. No. 10/423,830; cited from earlier work
[10] = target: the molecule itself; test: non-denaturing gel (4-20%, coomassie blue), L-4F alone in lane 2; self-association of the peptide
[11] = FIG. 22, peptide 10 μg with or without niclosamide 10:1, ABCT pH 8.0, stomach tube, seven hours

Molecule: O=C(Nc1ccc([N+](=O)[O-])cc1Cl)c1ccc(Cl)cc1O [BP-1001]
HDL-inflammatory index, salicylanilide with D-4F or L-4F ([1]; six hours): more potent than niclosamide
LDL-inflammatory index, salicylanilide with D-4F or L-4F [2]: more potent

molecular weight of micelles formed by self-association [4]: > 100 kDa
detectability in the circulation [6]: essentially non-detectable
Molecule: Ac-DWFKAFYDKVAEKFKEAF-NH2 [L-4F, Ac-D-W-F-K-A-F-Y-D-K-V-A-E-K-F-K-E-A-F-NH2]
HDL-inflammatory index ([1]; FIG. 8, female apoE null mice, additions to 1 g chow overnight: L-4F 2 or 10 μg, Niclosamide 8 or 100 μg): slightly but significantly improved
HDL-inflammatory index [1, 11]: only able to achieve this degree of efficacy when co-administered with niclosamide
HDL-inflammatory index ([1]; FIG. 37, fractions containing 10 μg L-4F or 10 μg niclosamide in ABCT by stomach tube, six hours): not effective
atherosclerosis (aortic sinus lesion, en face, macrophage lesion area) [3]: not without niclosamide
lesions in old apoE null mice versus Time Zero (aortic sinus lesion area): neither niclosamide nor L-4F without niclosamide significantly reduced lesions
protective capacity of HDL to inhibit LDL-induced monocyte chemotactic activity [5]: did not significantly alter
degradation after oral administration [7]: rapidly degraded

solubility of niclosamide in aqueous solution [8]: relatively insoluble
Molecule: O=C(Nc1ccc([N+](=O)[O-])cc1Cl)c1cc(Cl)ccc1O [Niclosamide, 5-chloro-N-(2-chloro-4-nitrophenyl)-2-hydroxybenzamide]
enhancement of the ability of L-4F to render HDL anti-inflammatory ([1]; FIG. 16, niclosamide 250 μg/day in chow, L-4F 25 μg/day in drinking water or chow, three days): greatly enhanced
enhancement of the ability of L-4F to decrease LDL-induced monocyte chemotactic activity ([2]; FIG. 17, niclosamide 250 μg/day in chow, L-4F 25 μg/day in drinking water or chow, three days): greatly enhanced
lesions in old apoE null mice versus Time Zero (aortic sinus lesion area): neither niclosamide nor L-4F without niclosamide significantly reduced lesions
water solubility ([9]; at 20° C., ethanolamine salt in distilled water): 5 to 8 µg/mL
solubility in acetone [9]: soluble
solubility in ether, ethanol and chloroform [9]: sparingly soluble
stability in tablets ([9]; moist environments): undergoes a biodegradation

Molecule: CC(C)c1c(C(=O)Nc2ccccc2)c(-c2ccccc2)c(-c2ccc(F)cc2)n1CC[C@@H](O)C[C@@H](O)CC(=O)O [atorvastatin, reference compound]
HDL function (HDL function): did not improve HDL function

detectability in the circulation [6]: essentially non-detectable
Molecule: Ac-DWFKAFYDKVAEKFKEAF-NH2 [D-4F]
HDL-inflammatory index [1, 11]: able to render apoE null mouse HDL anti-inflammatory to a degree comparable to normal human HDL
HDL function (HDL function): did not significantly improve HDL function

Molecule: O=C(Nc1ccc([N+](=O)[O-])cc1Cl)c1ccc(O)c(Cl)c1 [BP-1012]
HDL-inflammatory index, salicylanilide with D-4F or L-4F ([1]; six hours): more potent than niclosamide
LDL-inflammatory index, salicylanilide with D-4F or L-4F [2]: more potent

B1: L-4F (Ac-D-W-F-K-A-F-Y-D-K-V-A-E-K-F-K-E-A-F-NH2, all L amino acids) (peptide)
peptide: Ac-DWFKAFYDKVAEKFKEAF-NH2
notes: It self-associates into micelles; also called L-4F (free base)
binding result [10]: binds
